Drawing on PubChem BioAssay (NCI), this text covers TGI and GI50 for 8 compounds.

Experiment in all cases: NCI-60 cell line screen, 48 h
The test system of experiment [1] is OVCAR-3 ovarian.
The test system of experiment [2] is HL-60(TB) leukemia.
For experiment [3], the system named is LOX IMVI melanoma.
Experiment [4] has as its system SF-539 CNS.
Experiment [5] relates to RXF 393 renal.
The subject of experiment [6] is K-562 leukemia.
In experiment [7] the test system is HCT-116 colon.
Experiment [8] has as its system SK-MEL-5 melanoma.
Experiment [9] deals with KM12 colon.
Experiment [10] relates to UO-31 renal.
The test system of experiment [11] is COLO 205 colon.
Experiment [12] concerns CAKI-1 renal.
The test system of experiment [13] is ACHN renal.
For experiment [14], the system named is SF-268 CNS.
Experiment [15] relates to HCT-15 colon.
Experiment [16] concerns SN12C renal.
Experiment [17] deals with MDA-MB-231 breast.
Experiment [18] relates to EKVX NSCLC.

Several values for one entry are separate records, joined by “and”; a condition that tells them apart may be missing. Identical values can stand only once.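 Step 1: Grow cells in 96-well plates. Step 2: Expose to compound for 48 hours at 5 concentrations. Step 3: Interpolate endpoints linearly; if unreached, use highest concentration. GI50 is the concentration that inhibits growth by half. TGI: total growth inhibition.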

For `OCC1OC(NCCNCCNC2OC(CO)C(O)C(O)C2O)C(O)C(O)C1O` (configuration not stated), the TGI in experiment [1], in experiment [2], in experiment [3], in [4], in experiment [5] and in experiment [6] was greater than 100 µM in each case. In addition, the TGI is greater than 100 µM in experiment [7]; greater than 100 µM in experiment [8]; 22.5 µM and > 100 µM in [9]; greater than 100 µM in experiment [10]; greater than 100 µM in experiment [11]; 10.3 µM and > 100 µM in experiment [12]. The TGI in [13], in [14], in [15], in [16], in experiment [17] and in experiment [18] was greater than 100 µM in each case. Also, the GI50 in [9] was 10.4 µM and 43.3 µM and > 100 µM.

For the compound `Cc1nn(C(=O)c2ccncc2)c2c1C(c1ccc(Cl)cc1)SC(N)=N2` (configuration not stated), the TGI in [1], in experiment [2], in experiment [3], in [4], in [5] and in experiment [6] was greater than 10 µM throughout. For the same compound, the TGI in experiment [7], in [8], in experiment [9], in experiment [11], in experiment [12] and in experiment [13] was greater than 10 µM throughout. Also, the TGI in experiment [14], in [15], in [16], in [17] and in experiment [18] was greater than 10 µM throughout.

Regarding `CCCCn1cnnc1NS(=O)(=O)c1cc(C)c(Cl)cc1SCC(=O)O`, the TGI in [1], in [2], in [3], in [4], in experiment [5] and in experiment [6] was greater than 10 µM in each case. In addition, the TGI in [7], in [8], in experiment [9], in experiment [10], in [11] and in experiment [12] was greater than 10 µM throughout. Besides, the TGI in experiment [13], in experiment [14], in experiment [15], in experiment [16], in [17] and in [18] was greater than 10 µM each time.

As to `COc1cc(NCc2ccc3nc(-c4ccccc4)c(N)nc3c2)cc(OC)c1OC`, the TGI in experiment [1] is 82.7 µM; in experiment [2], 49.7 µM; in [3], greater than 100 µM; in experiment [4] it was 91.4 µM; in experiment [5], 58.9 µM; in experiment [6], greater than 100 µM. Further, the TGI in experiment [7] is 33.7 µM; in experiment [8] it was 28.9 µM; in experiment [9], 54.5 µM; in experiment [10] it was greater than 100 µM; in experiment [11] it was 38.6 µM; in experiment [12] it was 85.8 µM. Besides, the TGI was greater than 100 µM in experiment [13]; 98.6 µM in experiment [14]; greater than 100 µM in [15]; greater than 100 µM in [16]; greater than 100 µM in experiment [17]; greater than 100 µM in experiment [18].

On to `Cc1nc(-n2[nH]c(C)c(CCO)c2=O)[nH]c(=O)c1CCO`, for which the TGI in [1], in experiment [2], in [3], in experiment [4], in experiment [5] and in experiment [6] was greater than 100 µM each time. For the same compound, the TGI in experiment [7], in [8], in [9], in [10], in experiment [11] and in experiment [12] was greater than 100 µM in each case. For the same compound, the TGI in experiment [13], in experiment [14], in experiment [15], in experiment [16], in experiment [17] and in experiment [18] was greater than 100 µM in each case.

Consider `COc1cc(C[C@H]2C(=O)OC[C@@H]2Cc2ccc(OC)c(OC)c2)cc(OC)c1`, for which the TGI is greater than 100 µM in [1]; 77.1 µM in experiment [2]; 49.5 µM in [3]; greater than 100 µM in experiment [4]; greater than 100 µM in experiment [5]; greater than 100 µM in [6]. The TGI in experiment [7] was greater than 100 µM; in experiment [8], 54.5 µM; in [9], greater than 100 µM; in experiment [10], greater than 100 µM; in [11], greater than 100 µM; in experiment [12], greater than 100 µM. For the same compound, the TGI in [13], in [14], in [15], in experiment [16], in experiment [17] and in experiment [18] was greater than 100 µM each time.

On to `CCOC(=O)c1cc(C2CCN(CC(C)CC)C2=S)c(-c2cc(C)no2)[nH]1` (configuration not stated), for which the TGI in experiment [1], in [2], in experiment [3], in experiment [4], in experiment [5] and in experiment [6] was greater than 100 µM each time. The TGI is greater than 100 µM in experiment [7]; greater than 100 µM in experiment [8]; greater than 100 µM in experiment [9]; 82.4 µM in experiment [10]; greater than 100 µM in experiment [11]; greater than 100 µM in experiment [12]. For the same compound, the TGI in experiment [14], in [15], in experiment [16], in experiment [17] and in [18] was greater than 100 µM each time.

On to `O=c1[nH]c(=O)n(COCCO)c2ccc(Br)cc12`, for which the TGI in [1], in [2], in experiment [3], in experiment [4], in [5] and in experiment [6] was greater than 100 µM each time. Besides, the TGI in [7], in experiment [8], in experiment [9], in experiment [10], in [11] and in experiment [12] was greater than 100 µM in each case. The TGI in [13], in experiment [15], in [16], in experiment [17] and in experiment [18] was greater than 100 µM in each case.
